Assay results taken from patent US12564193B2, “Isoxazoline-substituted benzamide derivative, and preparation method therefor and use thereof” (SHANDONG UNITED PESTICIDE INDUSTRY CO., LTD., priority 2020, dated 2026).
Read-outs that look alike come from different tables or passages of the source.

Experiments:
Assay type in all cases: in vivo
[1] = test system: Frankliniella occidentalis; experiment: Insecticidal activity, spray on pre-infested radish plants: Frankliniella occidentalis; conditions: for Fatality rate on Frankliniella occidentalis (%): Table 3; for pest or weed control at 1 ppm / pest or weed control at 10 ppm / pest or weed control at 25 ppm: Frankliniella occidentalis, 144 h, read-out: fatality rate on Frankliniella occidentalis
Procedure: (§1) For determination of insecticidal activity, the test method was as follows: a test solution with a desired concentration was prepared by dissolving a test compound sample in a suitable solvent (the kind of solvent was such as acetone, methanol, DMSO, etc., and was selected according to its dissolving ability for the sample). The test cell was composed of a small open container with 12-15 day old radish plants inside. The plants were pre-infested by placing 30-40 pests located on one leaf cut from the cultivated plant on one leaf of the test plant (leaf cutting method). As the leaves dehydrated, the pests moved on the test plants. After the pre-infesting, the soil of the test cells was covered with a layer of sand.
The test method was as follows: the test was repeated for three times, and after spraying the formulated test compound, each test unit was allowed to dry for 1 hour, and then a black mesh cover was placed at the top. The test units were kept in a growth chamber at 25° C. and 70% relative humidity for 6 days. The mortality (fatality rate) of the insects was then visually assessed for each test unit, and the fatality rate was calculated as follows:
[formula] (1) Test Results for the Control of Frankliniella occidentalis by Exemplary Example Compounds

Plutella xylostella = experiment: Insecticidal activity, spray on pre-infested radish plants: Plutella xylostella; conditions: for Fatality rate on Plutella xylostella (%): Table 3; for pest or weed control at 0.1 ppm / pest or weed control at 1 ppm / pest or weed control at 10 ppm: Plutella xylostella, 144 h, read-out: fatality rate on Plutella xylostella
Procedure: as §1
(§2) The test method was as follows: the test was repeated for three times, and after spraying the formulated test compound, each test unit was allowed to dry for 1 hour, and then a black mesh cover was placed at the top. The test units were kept in a growth chamber at 25° C. and 70% relative humidity for 6 days. The mortality (fatality rate) of the insects was then visually assessed for each test unit, and the fatality rate was calculated as follows: […]

Pieris rapae = experiment: Insecticidal activity, spray on pre-infested radish plants: Pieris rapae; conditions: 144 h, read-out: fatality rate on Pieris rapae
Procedure: as §1, §2

Mythimna separata = experiment: Insecticidal activity, spray on pre-infested radish plants: Mythimna separata; conditions: for Fatality rate on Mythimna separata (%): Table 3; for pest or weed control at 0.1 ppm / pest or weed control at 1 ppm / pest or weed control at 10 ppm: Mythimna separata, 144 h, read-out: fatality rate on Mythimna separata
Procedure: as §1, §2

Spodoptera litura = experiment: Insecticidal activity, spray on pre-infested radish plants: Spodoptera litura; conditions: 144 h, read-out: fatality rate on Spodoptera litura
Procedure: as §1, §2

Chilo suppressalis = experiment: Insecticidal activity, spray on pre-infested radish plants: Chilo suppressalis; conditions: for Fatality rate on Chilo suppressalis (%): Table 3; for pest or weed control at 0.1 ppm / pest or weed control at 1 ppm / pest or weed control at 10 ppm: Chilo suppressalis, 144 h, read-out: fatality rate on Chilo suppressalis
Procedure: as §1, §2

Cnaphalocrocis medinalis = experiment: Insecticidal activity, spray on pre-infested radish plants: Cnaphalocrocis medinalis; conditions: 144 h, read-out: fatality rate on Cnaphalocrocis medinalis
Procedure: as §1, §2

Tetranychus cinnabarinus = experiment: Acaricidal activity, slide immersion of female adult mites: Tetranychus cinnabarinus; conditions: read-out: fatality rate on Tetranychus cinnabarinus
Procedure: The test method was as follows: a test solution with a desired concentration was prepared by dissolving a test compound sample in a suitable solvent (the kind of solvent was such as acetone, methanol, DMSO, etc., and was selected according to its dissolving ability for the sample). A double-sided adhesive tape was cut into 2-3 cm long pieces, the pieces were attached to one end of a microscope slide, paper pieces on the adhesive tape were removed using tweezers, female adult mites which were consistent in size, bright in body color and lively in action were selected using a zero-size brush pen, the backs of the female adult mites were adhered to the double-sided adhesive tape (note: the adhesion should not cover mite feet, mite whiskers and mouthparts), with 4 rows of mites adhered to each piece and 10 heads of the mites adhered to each row.
One end of the glass slide with the mites was immersed into a drug liquid, with slightly shaking for 5 seconds, and then the slide was taken out. The excess drug liquid around the mite body and is surroundings is quickly sucked off using absorbent paper. The slide was placed in the biochemical incubator described above, and the results were checked by using binoculars after 24 hours. The mites were slightly touched by using a brush pen, the mites with immobility in feet were considered to be dead, and the fatality rate was calculated. The fatality rate was calculated as follows: […]

In the case of `Cc1cc(C2=NOC(c3cc(F)c(F)c(F)c3)(C(F)(F)F)C2)ccc1C(=O)NCc1ccc(Cl)nc1` (stereo not drawn) [Compound 2, N-((6-chloropyridin-3-yl)methyl)-2-methyl-4-(5-(trifluoromethyl)-5-(3,4,5-trifluorophenyl)-4,5-dihydroisoxazol-3-yl)benzamide], the “Fatality rate on Frankliniella occidentalis (%)” value ([1]; 1 ppm) is reported as 90%, the “Fatality rate on Frankliniella occidentalis (%)” value ([1]; 10 ppm) is reported as 100% and the “Fatality rate on Frankliniella occidentalis (%)” value ([1]; 25 ppm) is reported as 100%. For the same compound, the pest or weed control at 1 ppm ([1]; dose 1 ppm, spray, 6 days) was over 80%, the pest or weed control at 10 ppm ([1]; dose 10 ppm, spray, 6 days) was over 80% and the pest or weed control at 25 ppm ([1]; dose 25 ppm, spray, 6 days) was over 80%. For the same compound, the “Fatality rate on Plutella xylostella (%)” value (Plutella xylostella; 0.1 ppm) was 85%, the “Fatality rate on Plutella xylostella (%)” value (Plutella xylostella; 1 ppm) was 100% and the “Fatality rate on Plutella xylostella (%)” value (Plutella xylostella; 10 ppm) was 100%. The pest or weed control at 0.1 ppm (Plutella xylostella; dose 0.1 ppm, spray, 6 days) was over 80%, the pest or weed control at 1 ppm (Plutella xylostella; dose 1 ppm, spray, 6 days) was over 80% and the pest or weed control at 10 ppm (Plutella xylostella; dose 10 ppm, spray, 6 days) was over 80%. For the same compound, the pest or weed control at 0.1 ppm (Pieris rapae; dose 0.1 ppm, spray, 6 days) was over 80%, the pest or weed control at 1 ppm (Pieris rapae; dose 1 ppm, spray, 6 days) was over 80% and the pest or weed control at 10 ppm (Pieris rapae; dose 10 ppm, spray, 6 days) was over 80%. For the same compound, the “Fatality rate on Mythimna separata (%)” value (Mythimna separata; 0.1 ppm) was 85%, the “Fatality rate on Mythimna separata (%)” value (Mythimna separata; 1 ppm) was 100% and the “Fatality rate on Mythimna separata (%)” value (Mythimna separata; 10 ppm) was 100%. It also gave a pest or weed control at 0.1 ppm (Mythimna separata; dose 0.1 ppm, spray, 6 days) of over 80%, a pest or weed control at 1 ppm (Mythimna separata; dose 1 ppm, spray, 6 days) of over 80% and a pest or weed control at 10 ppm (Mythimna separata; dose 10 ppm, spray, 6 days) of over 80%. For the same compound, the pest or weed control at 0.1 ppm (Spodoptera litura; dose 0.1 ppm, spray, 6 days) was over 80%, the pest or weed control at 1 ppm (Spodoptera litura; dose 1 ppm, spray, 6 days) was over 80% and the pest or weed control at 10 ppm (Spodoptera litura; dose 10 ppm, spray, 6 days) was over 80%. The “Fatality rate on Chilo suppressalis (%)” value (Chilo suppressalis; 0.1 ppm) was 80%, the “Fatality rate on Chilo suppressalis (%)” value (Chilo suppressalis; 1 ppm) was 100% and the “Fatality rate on Chilo suppressalis (%)” value (Chilo suppressalis; 10 ppm) was 100%. It also gave a pest or weed control at 0.1 ppm (Chilo suppressalis; dose 0.1 ppm, spray, 6 days) of over 80%, a pest or weed control at 1 ppm (Chilo suppressalis; dose 1 ppm, spray, 6 days) of over 80% and a pest or weed control at 10 ppm (Chilo suppressalis; dose 10 ppm, spray, 6 days) of over 80%. The pest or weed control at 0.1 ppm (Cnaphalocrocis medinalis; dose 0.1 ppm, spray, 6 days) was over 80%, the pest or weed control at 1 ppm (Cnaphalocrocis medinalis; dose 1 ppm, spray, 6 days) was over 80% and the pest or weed control at 10 ppm (Cnaphalocrocis medinalis; dose 10 ppm, spray, 6 days) was over 80%. It also gave a pest or weed control at 1 ppm (Tetranychus cinnabarinus; dose 1 ppm, immersion 5 seconds, checked after 24 hours) of over 80%, a pest or weed control at 10 ppm (Tetranychus cinnabarinus; dose 10 ppm, immersion 5 seconds, checked after 24 hours) of over 80% and a pest or weed control at 25 ppm (Tetranychus cinnabarinus; dose 25 ppm, immersion 5 seconds, checked after 24 hours) of over 80%.

In the case of `Cc1cc(C2=NOC(c3cc(Cl)c(F)c(Cl)c3)(C(F)(F)F)C2)ccc1C(=O)NCc1cnccc1C(F)(F)F` (stereo not drawn) [Compound 3], the pest or weed control at 1 ppm [1] is reported as over 80%, the pest or weed control at 10 ppm [1] is reported as over 80% and the pest or weed control at 25 ppm [1] is reported as over 80%. The pest or weed control at 0.1 ppm (Plutella xylostella) was over 80%, the pest or weed control at 1 ppm (Plutella xylostella) was over 80% and the pest or weed control at 10 ppm (Plutella xylostella) was over 80%. The pest or weed control at 0.1 ppm (Pieris rapae) was over 80%, the pest or weed control at 1 ppm (Pieris rapae) was over 80% and the pest or weed control at 10 ppm (Pieris rapae) was over 80%. It also gave a pest or weed control at 0.1 ppm (Mythimna separata) of over 80%, a pest or weed control at 1 ppm (Mythimna separata) of over 80% and a pest or weed control at 10 ppm (Mythimna separata) of over 80%. The pest or weed control at 0.1 ppm (Spodoptera litura) was over 80%, the pest or weed control at 1 ppm (Spodoptera litura) was over 80% and the pest or weed control at 10 ppm (Spodoptera litura) was over 80%. For the same compound, the pest or weed control at 0.1 ppm (Chilo suppressalis) was over 80%, the pest or weed control at 1 ppm (Chilo suppressalis) was over 80% and the pest or weed control at 10 ppm (Chilo suppressalis) was over 80%. For the same compound, the pest or weed control at 0.1 ppm (Cnaphalocrocis medinalis) was over 80%, the pest or weed control at 1 ppm (Cnaphalocrocis medinalis) was over 80% and the pest or weed control at 10 ppm (Cnaphalocrocis medinalis) was over 80%. It also gave a pest or weed control at 1 ppm (Tetranychus cinnabarinus; 24 h) of over 80%, a pest or weed control at 10 ppm (Tetranychus cinnabarinus; 24 h) of over 80% and a pest or weed control at 25 ppm (Tetranychus cinnabarinus; 24 h) of over 80%.

With `Cc1cc(C2=NOC(c3cc(Cl)c(F)c(Cl)c3)(C(F)(F)F)C2)ccc1C(=O)NCc1cnc(Cl)cc1C(F)(F)F` (stereo not drawn) [Compound 5] the pest or weed control at 1 ppm [1] was over 80%, the pest or weed control at 10 ppm [1] was over 80% and the pest or weed control at 25 ppm [1] was over 80%. It also gave a pest or weed control at 0.1 ppm (Plutella xylostella) of over 80%, a pest or weed control at 1 ppm (Plutella xylostella) of over 80% and a pest or weed control at 10 ppm (Plutella xylostella) of over 80%. The pest or weed control at 0.1 ppm (Pieris rapae) was over 80%, the pest or weed control at 1 ppm (Pieris rapae) was over 80% and the pest or weed control at 10 ppm (Pieris rapae) was over 80%. The pest or weed control at 0.1 ppm (Mythimna separata) was over 80%, the pest or weed control at 1 ppm (Mythimna separata) was over 80% and the pest or weed control at 10 ppm (Mythimna separata) was over 80%. It also gave a pest or weed control at 0.1 ppm (Spodoptera litura) of over 80%, a pest or weed control at 1 ppm (Spodoptera litura) of over 80% and a pest or weed control at 10 ppm (Spodoptera litura) of over 80%. It also gave a pest or weed control at 0.1 ppm (Chilo suppressalis) of over 80%, a pest or weed control at 1 ppm (Chilo suppressalis) of over 80% and a pest or weed control at 10 ppm (Chilo suppressalis) of over 80%. For the same compound, the pest or weed control at 0.1 ppm (Cnaphalocrocis medinalis) was over 80%, the pest or weed control at 1 ppm (Cnaphalocrocis medinalis) was over 80% and the pest or weed control at 10 ppm (Cnaphalocrocis medinalis) was over 80%. It also gave a pest or weed control at 1 ppm (Tetranychus cinnabarinus; 24 h) of over 80%, a pest or weed control at 10 ppm (Tetranychus cinnabarinus; 24 h) of over 80% and a pest or weed control at 25 ppm (Tetranychus cinnabarinus; 24 h) of over 80%.
